# Assay results from ChEMBL document CHEMBL1136579, “Determination of active components in rhubarb and study of their hydrophobicity by micellar electrokinetic chromatography” (Bioorg Med Chem Lett, 2003).
# Test: Partition coefficient of compound in octanol and water by Fragmental method of Leo/Hansch
# Type: physicochemical
row,SMILES,logP
1,O=C1c2cccc(O)c2C(=O)c2c(O)cc(CO)cc21 [ALOE-EMODIN],2.62
2,Cc1cc(O)c2c(c1)C(=O)c1cccc(O)c1C2=O [CHRYSOPHANOL],3.39
3,Cc1cc(O)c2c(c1)C(=O)c1cc(O)cc(O)c1C2=O [EMODIN],2.87
4,COc1cc(O)c2c(c1)C(=O)c1cc(C)cc(O)c1C2=O [PHYSCION],3.65
5,O=C(O)c1cc(O)c2c(c1)C(=O)c1cccc(O)c1C2=O [RHEIN],2.37
